IC50 data for 32 molecules are collected here from patent publication US9856279B2 (AGIOS PHARMACEUTICALS, INC, priority 2011, dated 2018).

IDH1 R132H, sequence (O75874 whole entry R132H): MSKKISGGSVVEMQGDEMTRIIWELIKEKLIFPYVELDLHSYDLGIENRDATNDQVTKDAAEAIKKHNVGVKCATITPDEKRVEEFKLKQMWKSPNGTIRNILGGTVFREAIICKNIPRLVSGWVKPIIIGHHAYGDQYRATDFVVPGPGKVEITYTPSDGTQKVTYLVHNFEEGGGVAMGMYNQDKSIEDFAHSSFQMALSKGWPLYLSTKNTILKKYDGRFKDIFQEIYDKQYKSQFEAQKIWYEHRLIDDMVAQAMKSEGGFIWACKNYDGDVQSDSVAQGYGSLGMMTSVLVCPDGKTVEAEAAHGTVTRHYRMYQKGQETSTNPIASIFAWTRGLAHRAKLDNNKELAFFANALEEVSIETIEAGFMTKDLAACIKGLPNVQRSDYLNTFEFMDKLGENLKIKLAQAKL

The first test concerns the target IDH1 R132H (Homo sapiens, UniProt O75874, R132H). Briefly: Assay for IDH1 R132H inhibitors (NADPH/aKG, resazurin detection). It counts as biochemical. Conditions: Table 3; enzyme assay, 50 minutes at room temperature; read-out: IC50 (IDH1 R132H Inhibition). The gist of the method: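 Read-out is resorufin fluorescence (Ex544/Em590) 5 min after adding a 30 μM resazurin detection mix. Before that, mutant enzyme (0.2 μg/ml in its mix) ran 50 min at room temperature with compound, 8 uM NADPH and 2 mM aKG (mix levels) in Tris pH 7.5 with NaCl, MgCl2, BSA.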
As a reminder, the IC50 is the concentration at which inhibition is half-maximal. Regarding `COc1ccccc1-c1cc(C(C)C)nc(N2CCN(C(=O)c3ccco3)CC2)c1C#N` [Compound 104, 2-(4-(furan-2-carbonyl)piperazin-1-yl)-6-isopropyl-4-(2-methoxyphenyl)nicotinonitrile], the IC50 is 5 to 15 µM.

On to `COCCC(=O)N1CCN(c2nc(C3CC3)c(-c3ccc(C)c(F)c3)c(C)c2C#N)C[C@H]1C` [Compound 258, (R)-6-cyclopropyl-5-(3-fluoro-4-methylphenyl)-2-(4-(3-methoxypropanoyl)-3-methylpiperazin-1-yl)-4-methylnicotinonitrile], for which the IC50 was ≤ 1 µM.

On to `COCCC(=O)N1CCN(c2nc(C3CC3)c(-c3cccc(OC)c3)c(C)c2C#N)C[C@H]1C` [Compound 251, (R)-6-cyclopropyl-5-(3-methoxyphenyl)-2-(4-(3-methoxypropanoyl)-3-methylpiperazin-1-yl)-4-methylnicotinonitrile], for which the IC50 is ≤ 1 µM.

On to `CC(C)c1cc(-c2cccc(F)c2)c(C#N)c(N2CC(C)N(C(=O)c3ccoc3)C(C)C2)n1` (centres unmarked) [Compound 134, 4-(3-fluorophenyl)-2-(4-(furan-3-carbonyl)-3,5-dimethylpiperazin-1-yl)-6-isopropylnicotinonitrile], for which the 50% inhibitory concentration (IC50) fell in the range of 1 to 5 µM.

With `Cc1occc1C(=O)N1CCN(c2nc(C(C)C)c(-c3ccccc3)cc2C#N)C[C@H]1C` [Compound 164, (R)-6-isopropyl-2-(3-methyl-4-(2-methylfuran-3-carbonyl)piperazin-1-yl)-5-phenylnicotinonitrile], the IC50 was 1 to 5 µM.

Take `COCCC(=O)N1CCN(c2nc(C3CC3)c(-c3cccc(F)c3)c(C)c2C#N)C[C@H]1C` [Compound 257, (R)-6-cyclopropyl-5-(3-fluorophenyl)-2-(4-(3-methoxypropanoyl)-3-methylpiperazin-1-yl)-4-methylnicotinonitrile]: the half-inhibitory concentration (IC50) was ≤ 1 µM.

Take `COCCC(=O)N1CCN(c2nc(C(C)C)c(Cc3ccccc3)cc2C#N)C[C@H]1C` [Compound 239, (R)-5-benzyl-6-isopropyl-2-(4-(3-methoxypropanoyl)-3-methylpiperazin-1-yl)nicotinonitrile]: the IC50 was in the range of 1 to 5 µM.

For `COCCC(=O)N1CCN(c2nc(C(C)C)c(-c3ccccc3OC)cc2C#N)C[C@H]1C` [Compound 183, (R)-6-isopropyl-5-(2-methoxyphenyl)-2-(4-(3-methoxypropanoyl)-3-methylpiperazin-1-yl)nicotinonitrile], the IC50 was in the range of 1 to 5 µM.

For the molecule `CC(C)c1cc(-c2cccc(O)c2)c(C#N)c(N2CCN(C(=O)c3ccoc3)[C@H](C)C2)n1` [Compound 152, (R)-2-(4-(furan-3-carbonyl)-3-methylpiperazin-1-yl)-4-(3-hydroxyphenyl)-6-isopropylnicotinonitrile], the IC50 lay in the range of 1 to 5 µM.

As to `CC(C)c1nc(N2CCN(C(=O)c3c[nH]c4ccccc34)CC2c2ccccc2)c(C#N)cc1-c1ccccc1` (centres unmarked) [Compound 168, 2-(4-(1H-indole-3-carbonyl)-2-phenylpiperazin-1-yl)-6-isopropyl-5-phenylnicotinonitrile], the IC50 was 1 to 5 µM.

On to `CC(C)c1cc(-c2ccccc2O)c(C#N)c(N2CCN(C(=O)c3ccoc3)[C@H](C)C2)n1` [Compound 157, (R)-2-(4-(furan-3-carbonyl)-3-methylpiperazin-1-yl)-4-(2-hydroxyphenyl)-6-isopropylnicotinonitrile], for which the IC50 fell in the range of 5 to 15 µM.

Regarding `CC[C@@H]1CN(c2nc(C(C)C)c(-c3ccccc3)cc2C#N)CCN1C(=O)c1ccoc1` [Compound 171, (R)-2-(3-ethyl-4-(furan-3-carbonyl)piperazin-1-yl)-6-isopropyl-5-phenylnicotinonitrile], the IC50 is 1 to 5 µM.

As for `CC(C)c1nc(N2CCN(C(=O)c3ccco3)CC2)c(C#N)cc1-c1ccccc1` [Compound 109, 2-(4-(furan-2-carbonyl)piperazin-1-yl)-6-isopropyl-5-phenylnicotinonitrile], the 50% inhibitory concentration (IC50) was in the range of 5 to 15 µM.

In the case of `COCCC(=O)N1CCN(c2nc(C3CC3)c(-c3ccncc3)c(C)c2C#N)C[C@H]1C` [Compound 260, (R)-2-cyclopropyl-6-(4-(3-methoxypropanoyl)-3-methylpiperazin-1-yl)-4-methyl-3,4′-bipyridine-5-carbonitrile], the concentration for half-maximal inhibition (IC50) was ≤ 1 µM.

For `CC(=O)Oc1ccccc1-c1cc(C(C)C)nc(N2CCN(C(=O)c3ccoc3)[C@H](C)C2)c1C#N` [Compound 162, (R)-2-(3-cyano-2-(4-(furan-3-carbonyl)-3-methylpiperazin-1-yl)-6-isopropylpyridin-4-yl)phenylacetate], the IC50 was 1 to 5 µM.

For the molecule `COc1ccccc1-c1cc(C(C)C)nc(N2CCN(C(=O)Cc3ccccc3)C(C)C2)c1C#N` (centres unmarked) [Compound 149], the IC50 was in the range of 1 to 5 µM.

On to `COCCC(=O)N1CCN(c2nc(C3CC3)c(-c3ccc4ccccc4c3)c(C)c2C#N)C[C@H]1C` [Compound 259, (R)-6-cyclopropyl-2-(4-(3-methoxypropanoyl)-3-methylpiperazin-1-yl)-4-methyl-5-(naphthalen-2-yl)nicotinonitrile], for which the half-inhibitory concentration (IC50) is ≤ 1 µM.

In the case of `Cc1cccc(-c2cc(C#N)c(N3CCN(C(=O)Cc4cccs4)[C@H](C)C3)nc2C(C)C)c1` [Compound 192, (R)-6-isopropyl-2-(3-methyl-4-(2-(thiophen-2-yl)acetyl)piperazin-1-yl)-5-m-tolylnicotinonitrile], the half-inhibitory concentration (IC50) fell in the range of 1 to 5 µM.

On to `COCCC(=O)N1CCN(c2nc(C3CC3)c(Cc3ccccc3)c(C)c2C#N)C[C@H]1C` [Compound 245, (R)-5-benzyl-6-cyclopropyl-2-(4-(3-methoxypropanoyl)-3-methylpiperazin-1-yl)-4-methylnicotinonitrile], for which the IC50 lay in the range of 1 to 5 µM.

In the case of `COCCC(=O)N1CCN(c2nc(C(C)C)c(-c3ccc(C)cc3)cc2C#N)C[C@H]1C` [Compound 198, (R)-6-isopropyl-2-(4-(3-methoxypropanoyl)-3-methylpiperazin-1-yl)-5-p-tolylnicotinonitrile], the IC50 was in the range of 1 to 5 µM.

As to `Cc1occc1C(=O)N1CCN(c2nc(C(C)C)c(-c3ccc(C(F)(F)F)cc3)cc2C#N)C[C@H]1C` [Compound 201, (R)-6-isopropyl-2-(3-methyl-4-(2-methylfuran-3-carbonyl)piperazin-1-yl)-5-(4-(trifluoromethyl)phenyl)-nicotinonitrile], the 50% inhibitory concentration (IC50) fell in the range of 1 to 5 µM.

Still in this test, the particulars now being: enzyme assay of Example 12; read-out: IDH1R132H IC50.
With `CNc1cccc(-c2cc(C#N)c(N3CCN(C(=O)CCOC)[C@H](C)C3)nc2C2CC2)c1` [Compound 414, (R)-6-cyclopropyl-2-(4-(3-methoxypropanoyl)-3-methylpiperazin-1-yl)-5-(3-(methylamino)phenyl)nicotinonitrile], the IC50 was 0.5 to 1 µM.

`COCCC(=O)N1CCN(c2nc(C3CC3)c(-c3cccc(N(C)C)c3)cc2C#N)C[C@H]1C` [Compound 413, (R)-6-cyclopropyl-5-(3-(dimethylamino)phenyl)-2-(4-(3-methoxypropanoyl)-3-methylpiperazin-1-yl)nicotinonitrile]: the IC50 is 0.5 to 1 µM.

With `COCCC(=O)N1CCN(c2nc(C3CC3)c(-c3ccc(C(=O)N(C)OC)cc3)cc2C#N)C[C@H]1C` [Compound 656, (R)-4-(5-cyano-2-cyclopropyl-6-(4-(3-methoxypropanoyl)-3-methylpiperazin-1-yl)pyridin-3-yl)-N-methoxy-N-methylbenzamide], the IC50 lay in the range of 0.5 to 1 µM.

With `CNS(=O)(=O)c1ccc(-c2c(C3CC3)nc(N3CCN(C(=O)CCOC)[C@H](C)C3)c(C#N)c2C)cc1` [Compound 331, (R)-4-{5-cyano-2-cyclopropyl-6-[4-(3-methoxy-propionyl)-3-methyl-piperazin-1-yl]-4-methyl-pyridin-3-yl}-N-methyl-benzenesulfonamide], the IC50 was < 0.5 µM.

Consider `COCCC(=O)N1CCN(c2nc(C3CC3)c(N3CCN(CC4CC4)CC3)cc2C#N)C[C@H]1C` [Compound 378, (R)-6-cyclopropyl-5-(4-(cyclopropylmethyl)piperazin-1-yl)-2-(4-(3-methoxypropanoyl)-3-methylpiperazin-1-yl)nicotinonitrile], for which the 50% inhibitory concentration (IC50) is < 0.5 µM.

With `COCCC(=O)N1CCN(c2nc(C3CC3)c(-c3cccc(NC(C)=O)c3)cc2C#N)C[C@H]1C` [Compound 284, (R)—N-(3-(5-cyano-2-cyclopropyl-6-(4-(3-methoxypropanoyl)-3-methylpiperazin-1-yl)pyridin-3-yl)phenyl)acetamide], the IC50 fell in the range of 0.5 to 1 µM.

`COCCC(=O)N1CCN(c2nc(C3CC3)c(-c3ccc(F)cc3)cc2-c2nnco2)C[C@H]1C` [Compound 392, (R)-1-(4-(6-cyclopropyl-5-(4-fluorophenyl)-3-(1,3,4-oxadiazol-2-yl)pyridin-2-yl)-2-methylpiperazin-1-yl)-3-methoxypropan-1-one]: the half-maximal inhibitory concentration (IC50) is < 0.5 µM.

For `COCCC(=O)N1CCN(c2nc(C3CC3)c(-c3ccc(C(=O)OC)cc3)cc2C#N)C[C@H]1C` [Compound 665, (R)-methyl-4-(5-cyano-2-cyclopropyl-6-(4-(3-methoxypropanoyl)-3-methylpiperazin-1-yl)pyridin-3-yl)benzoate], the half-maximal inhibitory concentration (IC50) was < 0.5 µM.

For `COCCC(=O)N1CCN(c2nc(C3CC3)c(N(c3ccnc(C#N)c3)c3ccnc(C#N)c3)cc2C#N)C[C@H]1C` [Compound 659, (R)-4,4′-(5-cyano-2-cyclopropyl-6-(4-(3-methoxypropanoyl)-3-methylpiperazin-1-yl)pyridin-3-ylazanediyl)dipicolinonitrile], the IC50 is < 0.5 µM.

Consider `C=Cc1cc(-c2cc(C#N)c(N3CCN(C(=O)C[C@H]4CCC(=O)O4)[C@H](C4CC4)C3)nc2C2CC2)ccn1` [Compound 821], for which the IC50 is < 0.5 µM.

On to `CSCn1cc(-c2cc(C#N)c(N3CCN(C(=O)C4CC4)[C@H](C4CC4)C3)nc2C2CC2)cn1` [Compound 510, (R)-2-(4-(cyclopropanecarbonyl)-3-cyclopropylpiperazin-1-yl)-6-cyclopropyl-5-(1-((methylthio)methyl)-1H-pyrazol-4-yl)nicotinonitrile], for which the half-inhibitory concentration (IC50) lay in the range of 0.5 to 1 µM.
